In patent publication US20210070747A1, “2(1H)-QUINOLINONE DERIVATIVE” (priority 2017, published 2021):
Converted amounts (≈) assume the structure as drawn. Counter-ions that a name gives are not always drawn. Like-named read-outs stand apart in the source and are kept apart here.

How the values were obtained:
[1] = test system: N. gonorrhoeae ATCC 49226; experiment: Test for evaluating antibacterial activity (N. gonorrhoeae), broth microdilution MIC; format: cell-based; conditions: Neisseria gonorrhoeae, ATCC49226; 35° C., 24 hours, gonococcal broth
Procedure, shortened: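 Broth microdilution in gonococcal broth with 1% supplement C, inoculum from overnight chocolate II agar culture at McFarland 0.5 diluted 5-fold.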

E. Coli ATCC 25922 = experiment: Test for evaluating antibacterial activity (E. coli), broth microdilution MIC; format: cell-based; conditions: Escherichia coli, ATCC25922; 35° C., 18 hours, cation-adjusted Mueller-Hinton medium
Procedure, shortened: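 Broth microdilution per modified CLSI method in cation-adjusted Mueller-Hinton medium. Inoculum from overnight heart infusion agar growth, McFarland 0.5 suspension diluted 10-fold; incubation 35° C for 18 hours. MIC taken as lowest drug concentration with no visible growth.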

E. coli DNA gyrase [2] = target: T1, E. coli DNA gyrase (Escherichia coli, UniProt P0AES6); experiment: Test for evaluating the activity of inhibiting E. coli DNA gyrase enzyme (Method 1, supercoiling, Inspiralis enzyme); format: biochemical
T1 construct: made in house; host or cells: E. coli BL21 (DE3)
Procedure, shortened: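 Relaxed pBR322 (1 ng/μL) supercoiled by E. coli gyrase (0.006 U/μL final) with 0.5 mmol/L ATP in 20 mmol/L Tris-HCl pH 8.0, 8 mmol/L MgCl2, 35 mmol/L ammonium acetate, 60 min, room temperature. Stopped with H19; supercoiled/relaxed ratio read at 485/535 nm; inhibition curve across compound concentrations.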

E. coli topoisomerase IV = target: T2, E. coli topoisomerase IV (Escherichia coli, UniProt P20083); experiment: Test for evaluating the activity of inhibiting E. coli topoisomerase IV enzyme (relaxation); format: biochemical
T2 construct: purchased Inspiralis
Protocol: The enzymatic activity of E. coli topoisomerase IV was measured by a method comprising reacting topoisomerase IV and its substrate, supercoiled pBR322 (Inspiralis), in the presence of ATP and detecting the post-reaction supercoiled pBR322/relaxed pBR322 ratio with H19.
Specifically, to 2 ng/μL of supercoiled pBR322, E. coli topoisomerase IV enzyme (Inspiralis) was added at a final concentration of 0.0075 U/μL and the mixture was incubated for 30 minutes at room temperature. This reaction was carried out in 20 mmol/L tris-HCl buffered solution (pH 8.0) comprising 0.5 mmol/L ATP, 0.005% bridge 35, 35 mmol/L ammonium acetate, 8 mmol/L magnesium chloride, 4.6% glycerol, and 1 mmol/L dithiothreitol. To the reaction mixture, H19 was added to bring the reaction to an end; thereafter, the supercoiled pBR322/relaxed pBR322 ratio was detected at excitation wavelength/emission wavelength=485 nm/535 nm. An inhibition curve was obtained by allowing the analyte compound to be present at varying concentrations during the reaction described above.

E. coli DNA gyrase [3] = target: T1, E. coli DNA gyrase; experiment: Test for evaluating the activity of inhibiting E. coli DNA gyrase enzyme (Method 2, supercoiling, recombinant gyrA/gyrB complex); format: biochemical
Procedure, shortened: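 Recombinant E. coli gyrA/gyrB complex (His-tagged, BL21(DE3)-expressed, Ni-NTA purified; 0.135 nmol/mL final) supercoiled relaxed pBR322 (1 ng/μL) with 0.5 mmol/L ATP in pH 8.0 Tris buffer, 60 min at room temperature. H19 stopped the reaction; supercoiled/relaxed ratio read at 485/535 nm, inhibition curves built from varying compound concentrations.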

[4] = Method 1, read-out: E. Coli Gyrase supercoiling IC50
[5] = read-out: E. Coli TopoIV relaxation IC50
[6] = Method 2, read-out: E. Coli Gyrase supercoiling IC50

T2 sequence (P20083 whole entry): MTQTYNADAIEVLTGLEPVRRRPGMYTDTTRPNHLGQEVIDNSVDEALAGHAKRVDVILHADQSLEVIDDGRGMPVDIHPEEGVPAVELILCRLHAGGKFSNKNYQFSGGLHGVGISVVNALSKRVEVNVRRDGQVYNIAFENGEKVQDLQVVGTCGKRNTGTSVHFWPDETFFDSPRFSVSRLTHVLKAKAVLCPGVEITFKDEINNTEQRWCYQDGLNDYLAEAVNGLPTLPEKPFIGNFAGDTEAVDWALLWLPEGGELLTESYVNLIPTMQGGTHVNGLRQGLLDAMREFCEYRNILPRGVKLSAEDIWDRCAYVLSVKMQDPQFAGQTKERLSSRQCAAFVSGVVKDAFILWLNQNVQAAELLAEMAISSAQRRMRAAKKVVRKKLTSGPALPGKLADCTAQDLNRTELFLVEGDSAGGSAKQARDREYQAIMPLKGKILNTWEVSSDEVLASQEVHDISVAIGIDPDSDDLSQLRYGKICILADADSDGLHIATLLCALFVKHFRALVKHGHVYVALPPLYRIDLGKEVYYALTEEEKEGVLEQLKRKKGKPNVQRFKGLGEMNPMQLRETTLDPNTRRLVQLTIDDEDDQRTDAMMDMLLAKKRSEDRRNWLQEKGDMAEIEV
T2 sequence (P0AFI2 whole entry, further chain): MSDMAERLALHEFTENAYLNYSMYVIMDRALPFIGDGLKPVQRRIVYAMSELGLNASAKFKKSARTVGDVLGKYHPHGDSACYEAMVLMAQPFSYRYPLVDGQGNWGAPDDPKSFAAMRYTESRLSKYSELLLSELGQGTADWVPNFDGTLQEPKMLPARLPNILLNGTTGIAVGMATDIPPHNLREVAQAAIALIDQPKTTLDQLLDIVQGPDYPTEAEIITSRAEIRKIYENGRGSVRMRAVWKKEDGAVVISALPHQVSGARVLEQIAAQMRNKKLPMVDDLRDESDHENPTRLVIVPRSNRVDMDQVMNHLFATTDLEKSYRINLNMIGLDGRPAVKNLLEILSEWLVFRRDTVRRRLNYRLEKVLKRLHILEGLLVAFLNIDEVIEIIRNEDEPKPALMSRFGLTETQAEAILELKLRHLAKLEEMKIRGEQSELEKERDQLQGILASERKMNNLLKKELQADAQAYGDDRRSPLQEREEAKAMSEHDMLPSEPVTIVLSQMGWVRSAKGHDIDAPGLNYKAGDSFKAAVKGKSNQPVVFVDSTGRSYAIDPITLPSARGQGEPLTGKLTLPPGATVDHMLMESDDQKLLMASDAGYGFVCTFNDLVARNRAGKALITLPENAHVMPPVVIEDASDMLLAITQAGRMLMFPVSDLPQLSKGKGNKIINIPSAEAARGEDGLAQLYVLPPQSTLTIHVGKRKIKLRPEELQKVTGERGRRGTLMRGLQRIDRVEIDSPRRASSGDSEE

| Structure (SMILES) | MIC [1] [µg/mL] | MIC (E. Coli ATCC 25922) [µg/mL] | IC50 (E. coli DNA gyrase [2]; [4]) [nM] | IC50 (E. coli topoisomerase IV; [5]) [nM] | IC50 (E. coli DNA gyrase [2]) [nM] | IC50 (E. coli topoisomerase IV) [nM] | IC50 (E. coli DNA gyrase [3]; [6]) [nM] | IC50 (E. coli DNA gyrase [3]) [nM] |
| --- | --- | --- | --- | --- | --- | --- | --- | --- |
| CNc1cc(F)cc2cc(C(=O)Nc3cnc(C(=O)O)nc3)c(=O)[nH]c12 [Example 65, 5-[[6-Fluoro-8-(methylamino)-2-oxo-1,2-dihydroquinoline-3-carbonyl]amino]pyrimidine-2-carboxylic Acid] | 0.5 (≈ 1.4 µM) | > 16 | 0.95 | 32.5 | – | – | – | – |
| CNc1cc(F)cc2cc(C(=O)Nc3ccc(C(=O)O)cc3CN(C)C3CCCCC3)c(=O)[nH]c12 [Example 70, 3-{[cyclohexyl (methyl)amino]methyl}-4-{[6-fluoro-8-(methylamino)-2-oxo-1,2-dihydroquinoline-3-carbonyl]amino} bezoic acid-hydrochloride] | 0.03 | 8 | – | – | 0.53 | 47.4 | – | – |
| CNc1cc(F)cc2cc(C(=O)Nc3ccc(C(=O)NCCN4CCOCC4)cc3)c(=O)[nH]c12 [Example 40, 6-Fluoro-8-(methylamino)-N-(4-[[2-(morpholin-4-yl)ethyl]carbamoyl]phenyl)-2-oxo-1,2-dihydroquinoline-3-carboxamide] | – | 4 (≈ 8.56 µM) | – | 1300 | – | – | 7.29 | – |
| CNc1cccc2cc(C(=O)NCCc3cccc(C(=O)O)c3)c(=O)[nH]c12 [Example 5, 3-(2-{[8-(methylamino)-2-oxo-1,2-dihydroquinoline-3-carbonyl]amino}ethyl)benzoic acid] | – | > 64 | – | 17000 | – | – | 9.75 | – |
| CNc1cc(F)cc2cc(C(=O)Nc3ccc(C(=O)NS(=O)(=O)N(C)C)cc3)c(=O)[nH]c12 [Example 146, N-{4-[(dimethylsulfamoyl)carbamoyl]phenyl}-6-fluoro-8-(methylamino)-2-oxo-1,2-dihydroquinoline-3-carboxamide] | 0.008 (≈ 0.0173 µM) | 16 (≈ 34.7 µM) | – | 51.9 | – | – | 0.43 | – |
| CNc1cc(F)cc2c(O)c(C(=O)Nc3ccc(C(=O)NS(=O)(=O)N(C)C)cc3)c(=O)[nH]c12 [Example 148, N-{4-[(dimethyl-sulfamoyl)carbamoyl]phenyl}-6-fluoro-4-hydroxy-8-(methylamino)-2-oxo-1,2-dihydroquinoline-3-carboxamide] | ≤ 0.0005 | 1 (≈ 2.09 µM) | – | – | – | 127 | – | 2.66 |
| CNc1cc(F)cc2cc(C(=O)Nc3ccc(C(=O)O)cc3CN(CC(=O)O)C3CCCCC3)c(=O)[nH]c12 [Example 107, 3-{[(carboxymethyl) (cyclohexyl)amino]methyl} -4-{[6-fluoro-8-(methylamino)-2-oxo-1,2-dihydroquinoline-3-carbonyl]amino} benzoic acid] | 0.5 (≈ 0.953 µM) | > 64 | – | 76.3 | – | – | 0.57 | – |
| CNc1cc(F)cc2cc(C(=O)Nc3ccc(C(=O)O)cc3CN(C)C)c(=O)[nH]c12 [Example 85, 3-[(dimethylamino)methyl]-4-{[6-fluoro-8-(methylamino)-2-oxo-1,2-dihydroquinoline-3-carbonyl]amino} benzoic acid] | 2 (≈ 4.85 µM) | > 4 | – | – | – | 176 | – | 0.61 |
| CNc1cc(F)cc2cc(C(=O)Nc3ccccc3CN(C)C3CCCCC3)c(=O)[nH]c12 [Example 52, N-(2-{[cyclohexyl(methyl)amino]methyl}phenyl)-6-fluoro-8-(methylamino)-2-oxo-1,2-dihydroquinoline-3-carboxamide] | 0.5 (≈ 1.15 µM) | 16 (≈ 36.7 µM) | 2.47 | 519 | – | – | – | – |
| CNc1cc(F)cc2c(O)c(C(=O)Nc3ccc(C(=O)O)cc3CN3CCCCC3)c(=O)[nH]c12.O=C(O)C(F)(F)F [Example 153, 4-{[6-fluoro-4-hydroxy-8-(methylamino)-2-oxo-1,2-dihydroquinoline-3-carbonyl]amino}-3-[(piperidine-1-yl)methyl]benzoic acid-trifluoroacetate] | 0.06 | 8 | – | – | – | 4930 | – | 7.53 |
| CCCCCN(C)Cc1cc(C(=O)O)ccc1NC(=O)c1cc2cc(F)cc(NC)c2[nH]c1=O [Example 98, 4-{[6-fluoro-8-(methylamino)-2-oxo-1,2-dihydroquinoine-3-carbonyl]amino}-3-{[methyl (pentyl)amino)methyl} benzoic acid] | 0.06 (≈ 0.128 µM) | 4 (≈ 8.54 µM) | – | – | – | 41.4 | – | 0.21 |
| CNc1cccc2cc(C(=O)Nc3ccc(C(=O)O)cc3)c(=O)[nH]c12 [Example 2, 4-{[8-(methylamino)-2-oxo-1,2-dihydroquinoline-3-carbonyl]amino} benzoic acid] | > 1 | 64 (≈ 190 µM) | – | 980 | – | – | – | – |
| CNc1cc(F)cc2cc(C(=O)Nc3ccc(C(=O)O)cc3CN3CCCCC3)c(=O)[nH]c12 [Example 96, 4-{[6-fluoro-8-(methylamino)-2-oxo-1,2-dihydroquinoline-3-carbonyl]amino}-3-[(piperidine-1-yl)methyl] benzoic acid] | 0.015 (≈ 0.0332 µM) | 4 (≈ 8.84 µM) | – | – | – | 15.3 | – | 0.31 |
| CNc1cc(F)cc2c(NCC3CCNC3)c(C(=O)Nc3ccc(C(=O)O)cc3)c(=O)[nH]c12.O=CO (stereo not shown) [Example 133, 4-{[6-fluoro-8-(methylamino)-2-oxo-4-{[(pyrrolidine-3-yl)methyl]amino}-1,2-dihydroqunoline-3-carbonyl]amino}benzoic acid-formate] | – | > 16 | – | – | – | 160 | – | 0.82 |
| CNc1nccc2cc(C(=O)Nc3ccc(C(=O)O)cc3)c(=O)[nH]c12 [Example 17, 4-[[8-(Methylamino)-2-oxo-1,2-dihydro-1,7-naphthyridine-3-carbonyl]amino]benzoic Acid] | > 1 | > 64 | 293 | – | – | – | – | – |
| CNc1cc(F)cc2cc(C(=O)Nc3ccccc3CN(CCO)C3CCCCC3)c(=O)[nH]c12 [Example 123, N-(2-{[cyclohexyl(2-hydroxyethyl)amino]methyl}phenyl)-6-fluoro-8-(methylamino)-2-oxo-1,2-dihydroquinoline-3-carboxamide] | – | 8 (≈ 17.1 µM) | – | 615 | – | – | 3.59 | – |
| CNc1cc(F)cc2cc(C(=O)Nc3cccnc3)c(=O)[nH]c12 [Example 72, 6-fluoro-8-(methylamino)-2-oxo-N-(pyridine-3-yl)-1,2-dihydroquinoline-3-carboxamide] | 0.12 (≈ 0.384 µM) | > 4 | 8.03 | – | – | – | – | – |
| CNc1cc(F)cc2cc(C(=O)Nc3ccc(C(=O)O)cc3)c(=O)[nH]c12 [Example 33, 4-[[6-Fluoro-8-(methylamino)-2-oxo-1,2-dihydroquinoline-3-carbonyl]amino]benzoic Acid] | 0.004 (≈ 0.0113 µM) | 16 (≈ 45 µM) | – | – | – | 219 | – | 0.36 |
| CNc1cc(F)cc2cc(C(=O)Nc3ccc(C(=O)O)cc3CN(CCO)C3CCCCC3)c(=O)[nH]c12.Cl [Example 104, 3-{[cyclohexyl (2-hydroxyethyl)amino]methyl}-4-{[6-fluoro-8-(methylamino)-2-oxo-1,2-dihydroquinoline-3-carbonyl]amino} benzoic acid-hydrochloride] | 0.015 | 8 | – | – | – | 23.4 | – | 0.29 |
| CNc1cc(F)cc2cc(C(=O)Nc3ccc(C(=O)O)c(O)c3)c(=O)[nH]c12 [Example 58, 4-{[6-fluoro-8-(methylamino)-2-oxo-1,2-dihydroquinoline-3-carbonyl]amino}-2-hydroxybenzoic acid] | 0.12 (≈ 0.323 µM) | > 32 | 2.05 | – | – | – | – | – |
| CNc1cc(F)cc2c(O)c(C(=O)Nc3ccc(C(=O)O)cc3)c(=O)[nH]c12 [Example 117, 4-[[6-Fluoro-4-hydroxy-8-(methylamino)-2-oxo-1,2-dihydroquinoline-3-carbonyl]amino]benzoic Acid] | 0.0005 (≈ 0.00135 µM) | 1 (≈ 2.69 µM) | – | 62.9 | – | – | 1.1 | – |
| CNc1cc(F)cc2cc(C(=O)Nc3ccccc3)c(=O)[nH]c12 [Example 76, 6-fluoro-8-(methylamino)-2-oxo-N-phenyl-1,2-dihydroquinoline-3-carboxamide] | 0.25 (≈ 0.803 µM) | > 32 | 249 | – | – | – | – | – |
| CNc1cc(F)cc2cc(C(=O)NCCc3cccc(C(=O)O)c3)c(=O)[nH]c12 [Example 66, 3-(2-{[6-fluoro-8-(methylamino)-2-oxo-1,2-dihydroquinoline-3-carbonyl]amino}ethyl) benzoic acid] | 0.25 (≈ 0.652 µM) | > 32 | 0.95 | – | – | – | – | – |
